Results on 13 molecules are retold here after patent US11459295B2, “2-beta-naphthyl-acetic acid analogs as AKR1C3 inhibitors and methods of using same” (THE TRUSTEES OF THE UNIVERSITY OF PENNSYLVANIA, priority 2015, dated 2022).

Each structure is given as a SMILES string. Values joined by “and” are separate entries in the source; they are usually repeats but may differ in a detail not shown here. Identical values can stand only once.

One test has as its target AKR1C1 (Homo sapiens (Human), UniProt Q04828). Description: S-tetralol oxidation assay, AKR1C1. In kind it is biochemical.
Test [1] deals with T1, AKR1C2 (Homo sapiens (Human), UniProt P52895). Description: AKR1C2 catalyzed NADPH dependent reduction of 5α-DHT. In kind it is biochemical. The conditions noted are these: 5α-DHT reduction, <100 μM concentrations.
Procedure: Compounds were tested for their ability to inhibit the AKR1C3 catalyzed, reduction of [^3H]-Δ^4-AD and the AKR1C2 catalyzed reduction of [^3H]-5α-DHT. Compounds were incubated with purified recombinant enzyme and radiolabeled steroid in 100 mM phosphate buffer pH7.0 and 4% DMSO at 37° C. The reaction was initiated by the addition of 1 mM NADPH, aliquots were removed over time and subsequently quenched by the addition of ice cold ethyl acetate. The ethyl acetate fraction was extracted and dried in vacuum. Steroid reference standards and extracts were dissolved in 50 μl ethyl acetate and applied to LK6D Silica TLC plates (Whatman Inc., Clifton, N.J.). TLC plates were developed using a dichloromethane/ethyl acetate (80:20 v/v) solution and were scanned with a Bioscan System 200 plate reader (Washington, D.C.). The percentage of radioactivity in the product peak was calculated assuming that the combined radioactivity in the substrate and product peaks was 100%. Initial velocities were computed by converting the percentage of radioactivity in the product peak by the specific radioactivity of the starting material to generate pmoles/min.
Another test deals with COX-1 (Ovis aries (Sheep), UniProt P05979). Briefly: COX-1 assay (TMPD oxidation). Format: biochemical, ram. The procedure: The purity of the enzyme was assessed by SDS-PAGE. […] Reagents were mixed and incubated at 25° C. for 5 min followed by adding a mixture of TMPD and arachidonic acid to initiate the reaction. Specific activity was determined based on the initial velocity of the reduction of PGG2 formed in the reaction.
The effect of the compounds on COX-1 activity was determined by a continuous colorimetric assay that monitored the oxidation of N, N, N, N-tetramethyl-1,4-phenylenediamine (TMPD) when coupled to the COX catalyzed formation of PGH2 from PGG2 using arachidonic acid as substrate. […] Reagents were mixed and incubated at 25° C. for 5 min followed by adding a mixture of TMPD and arachidonic acid to initiate the reaction.

In test [2] the test system is LNCaP-AKR1C3 cells. Description: Western blot of Δ4-AD induced PSA expression. Format: cell-based. The note with it: 100 nM Δ4-AD, 30 μM compound. Here is the method: LNCaP cells stably expressing AKR1C3 (LNCaP-AKR1C3 cells) (Byrns, et al., 2012, J. Steroid. Biochem. & Mol. Biol. 130:7-15) seeded at a density of 1.5×10^6 cells were plated in 6 cm dishes containing phenol red free RPMI-1640 media supplemented with 5% CDFBS, 1% Pen/Strep and 2 mM L-Glutamine (CSS media). The cells were incubated for 24 h after which media was aspirated and fresh CSS media containing 100 nM Δ^4-AD plus and minus inhibitors. The cells were incubated for 24 h after which they were harvested in RIPA lysis buffer supplemented with protease inhibitors at 4° C. Lysate protein concentration was determined by the Bradford assay using the BIORAD protein dye (Bio-Rad). The samples were subjected to electrophoresis on a 12% SDS-PAGE gel that was subsequently transferred to a nitrocellulose membrane. The membrane was probed with the appropriate antibodies as follows; anti β-tubulin (Millipore, #05-661) anti-PSA (Meridian Life Science, Inc., #K92110R). Blots were imaged using the ECL reagent (Pierce) and GelDoc XR+ System and Image Lab software (Bio-Rad).

Test [3] addresses T1, AKR1C2. Briefly: S-tetralol oxidation assay, AKR1C2. The conditions noted are these: NADP+ dependent oxidation of S-tetralol, S-tetralol at Km; Table 1. In kind it is biochemical. Here is the method:
Enzyme Purification: Homogenous recombinant enzymes AKR1C1-4 were prepared and purified (Burczynski, et al., 1998, Biochemistry 37:6781-6790). Enzymes were purified to constant specific activity and their purity established by SDS-PAGE. All AKR enzymes were stored at −80° C. in 20 mM potassium phosphate buffer pH 7.0 containing 30% glycerol, 1 mM EDTA, and 1 mM β-mercaptoethanol. Under standard assay conditions, the specific activity of AKR1C1 for the NAD^+ dependent oxidation of 1-acenaphthenol (Sigma) was 2.0 μmol min^−1 mg^−1. The specific activities of AKR1C2 and AKR1C3 for the NAD^+ dependent oxidation of S-tetralol (Sigma) were 1.5 and 2.0 μmol min^−1 mg^−1, respectively, and the specific activity of AKR1C4 for the NAD^+ dependent oxidation of androsterone (Steraloids) was 0.3 μmol min^−1 mg^−1. The specific activities of AKR1C enzymes were determined by measuring the formation of NADH at 340 nm using a Beckman DU640 spectrophotometer. A typical assay solution contained 100 mM potassium phosphate pH 7.0, 2.3 mM NAD^+, 200 μM 1-acenaphthenol for AKR1C1, 3.0 mM Stetralol for AKR1C2 and 1C3, and 75 μM androsterone for AKR1C4, 4% acetonitrile (v/v). The mixtures were incubated at 25° C. (AKR1C1 and 1C4) or 37° C. (AKR1C2 and 1C3) for 3 min, followed by adding a serial dilution of enzyme solution to a final volume of 1 mL to initiate the reaction. After continuously monitoring for 5 min, the increase in UV absorption using different concentrations of enzyme were recorded to calculate the initial velocity of substrate oxidation and determine enzyme-specific activity.
the inhibitory potency of the individual compounds against the AKR1C isoforms was determined by monitoring the NADP^+ dependent oxidation of S-tetralol catalyzed by the AKR1C enzymes using substrate concentrations at their Km values in the presence and absence of varying concentration of the inhibitors (Adeniji, et al., 2012, J Med Chem 55:2311-2323). Reaction systems (200 μL) contained 100 mM potassium phosphate buffer (pH 7.0), 4% DMSO, 200 μM NADP^+, a serial dilution of compounds, S-tetralol, and AKR1C enzymes. […] The concentration of AKR1C1, 1C2, 1C3, and 1C4 was 111, 86, 95, and 552 nM, respectively. Reagents were mixed and incubated at 37° C. for 10 min followed by adding AKR1C enzymes to initiate the reaction. […] To determine the pattern of inhibition, five fixed concentrations of S-tetralol were used and four different concentrations of inhibitor were used and a gobal fit of the equations for COMP, NONCOMP and UNCOMP to the data was applied using Grafit.

Test [4] has as its target T2, AKR1C3 (Homo sapiens (Human), UniProt P42330). Briefly: AKR1C3 catalyzed reduction of Δ4-AD. Format: biochemical. The note with it: E.NADPH.I complex; read-out: Ki, competitive inhibition of AKR1C3 catalyzed reduction of Δ4-AD. From the text: The ethyl acetate fraction was extracted and dried in vacuum.
For test [5], the system named is LNCaP-AKR1C3 cells. Briefly: Radiometric assay of androgen metabolism. In kind it is cell-based. The conditions noted are these: 100 nM Δ4-AD, 30 μM compound, 48 h. The procedure: LNCaP-AKR1C3 cells seeded at a density of 1.5×10^6 cells were plated in 6 well plates in CSS media. The cells were allowed to incubate for 24 h, after which the media was aspirated and fresh CSS media with 7.5 nM (1.26 μCi) of [^3H] Δ^4-AD and 92.5 nM of cold Δ^4-AD (to obtain a final concentration of 100 nM) was added in the presence and absence of 30 μM of compound 8a in each well. The cells were incubated for 48 h, after which time the media was collected for analysis (Byrns, et al., 2012, J. Steroid. Biochem. & Mol. Biol. 130:7-15). The media was extracted twice with cold ethyl acetate. In order to determine radioactivity of each phase, a portion of each fraction was added to Ultima Gold (Perkin Elmer Life Sciences) scintillation fluid and analyzed on a TriCarb 2100 (Packard Instruments, Perkin Elmer Life Sciences), all CPM counts were blank-adjusted and reported as corrected cpm. The aqueous phases were acidified to pH 6.5 with acetic acid and subjected to treatment with 400 U of E. coli β-glucuronidase at 37° C. for 24 h. The de-conjugated androgens were re-extracted as described elsewhere herein, dried in vacuum and re-dissolved in 100 μL ethyl acetate for separation on the multi-channel LK6D Silica TLC plates. Plates were developed using dichloromethane/ethyl acetate (80:20 v/v) and scanned on the BioScan 200 plate reader.

Test [6] deals with T2, AKR1C3. Description: S-tetralol oxidation assay, AKR1C3. In kind it is biochemical. Here is the method: Enzymes were purified to constant specific activity and their purity established by SDS-PAGE. All AKR enzymes were stored at −80° C. in 20 mM potassium phosphate buffer pH 7.0 containing 30% glycerol, 1 mM EDTA, and 1 mM β-mercaptoethanol. […] The specific activities of AKR1C enzymes were determined by measuring the formation of NADH at 340 nm using a Beckman DU640 spectrophotometer. […] The mixtures were incubated at 25° C. (AKR1C1 and 1C4) or 37° C. (AKR1C2 and 1C3) for 3 min, followed by adding a serial dilution of enzyme solution to a final volume of 1 mL to initiate the reaction. After continuously monitoring for 5 min, the increase in UV absorption using different concentrations of enzyme were recorded to calculate the initial velocity of substrate oxidation and determine enzyme-specific activity.
Reagents were mixed and incubated at 37° C. for 10 min followed by adding AKR1C enzymes to initiate the reaction. […] To determine the pattern of inhibition, five fixed concentrations of S-tetralol were used and four different concentrations of inhibitor were used and a gobal fit of the equations for COMP, NONCOMP and UNCOMP to the data was applied using Grafit.

Another test deals with COX-2 (Mus musculus, UniProt Q05769). Briefly: COX-2 inhibition. Format: biochemical.
Setting [7] is: highest inhibitor concentration (100 μM) tested.
Setting [8] is: NADP+ dependent oxidation of S-tetralol, S-tetralol at Km, Table 1.

T1 sequence (P52895 whole entry): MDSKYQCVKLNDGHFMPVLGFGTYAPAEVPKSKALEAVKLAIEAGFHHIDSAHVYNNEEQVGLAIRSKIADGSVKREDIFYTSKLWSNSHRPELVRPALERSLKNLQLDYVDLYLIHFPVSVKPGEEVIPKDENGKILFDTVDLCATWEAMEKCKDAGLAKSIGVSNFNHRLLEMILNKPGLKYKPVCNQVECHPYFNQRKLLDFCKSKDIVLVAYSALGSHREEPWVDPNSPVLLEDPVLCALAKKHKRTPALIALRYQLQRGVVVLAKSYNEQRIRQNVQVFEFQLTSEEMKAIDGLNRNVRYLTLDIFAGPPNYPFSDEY
T2 sequence (P42330 whole entry): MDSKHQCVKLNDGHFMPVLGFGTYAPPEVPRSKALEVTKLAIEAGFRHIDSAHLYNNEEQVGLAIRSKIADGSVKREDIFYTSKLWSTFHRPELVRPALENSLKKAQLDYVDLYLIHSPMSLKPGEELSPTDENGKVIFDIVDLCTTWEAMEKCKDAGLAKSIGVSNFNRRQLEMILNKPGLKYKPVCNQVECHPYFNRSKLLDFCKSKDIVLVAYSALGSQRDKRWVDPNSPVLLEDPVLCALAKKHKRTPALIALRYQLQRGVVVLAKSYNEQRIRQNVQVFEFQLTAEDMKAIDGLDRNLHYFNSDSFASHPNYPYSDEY
Sequence of COX-1 (P05979 25-600): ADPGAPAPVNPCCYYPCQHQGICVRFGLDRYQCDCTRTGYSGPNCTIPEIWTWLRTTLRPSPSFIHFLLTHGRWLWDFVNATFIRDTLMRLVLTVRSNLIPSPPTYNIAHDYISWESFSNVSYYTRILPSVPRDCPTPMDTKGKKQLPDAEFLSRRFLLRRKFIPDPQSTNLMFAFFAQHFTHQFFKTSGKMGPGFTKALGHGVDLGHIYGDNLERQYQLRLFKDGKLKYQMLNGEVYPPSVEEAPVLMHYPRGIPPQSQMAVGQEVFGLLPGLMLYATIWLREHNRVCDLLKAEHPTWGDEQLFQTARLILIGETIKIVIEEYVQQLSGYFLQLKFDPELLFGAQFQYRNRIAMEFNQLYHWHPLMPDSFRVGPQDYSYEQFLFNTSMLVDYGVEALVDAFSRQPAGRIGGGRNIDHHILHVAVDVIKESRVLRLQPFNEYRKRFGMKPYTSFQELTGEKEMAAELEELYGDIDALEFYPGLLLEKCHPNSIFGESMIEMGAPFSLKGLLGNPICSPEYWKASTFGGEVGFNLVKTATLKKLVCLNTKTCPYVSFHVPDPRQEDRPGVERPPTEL
Sequence of COX-2 (Q05769 18-604 limits assumed): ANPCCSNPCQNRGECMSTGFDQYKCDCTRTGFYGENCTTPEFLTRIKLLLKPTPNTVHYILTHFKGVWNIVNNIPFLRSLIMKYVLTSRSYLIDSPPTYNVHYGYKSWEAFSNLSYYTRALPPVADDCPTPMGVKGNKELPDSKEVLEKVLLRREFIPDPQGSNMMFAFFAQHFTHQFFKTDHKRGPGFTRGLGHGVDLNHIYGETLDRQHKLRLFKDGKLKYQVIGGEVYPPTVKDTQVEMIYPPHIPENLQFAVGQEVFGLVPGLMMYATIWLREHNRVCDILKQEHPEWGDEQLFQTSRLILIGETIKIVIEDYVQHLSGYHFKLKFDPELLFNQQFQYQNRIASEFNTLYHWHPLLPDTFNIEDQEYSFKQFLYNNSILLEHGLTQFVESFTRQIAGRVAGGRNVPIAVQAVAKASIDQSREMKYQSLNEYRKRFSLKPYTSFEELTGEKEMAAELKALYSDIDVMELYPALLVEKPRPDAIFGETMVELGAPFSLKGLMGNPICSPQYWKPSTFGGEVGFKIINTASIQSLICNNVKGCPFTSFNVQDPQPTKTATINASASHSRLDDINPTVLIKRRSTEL
Sequence of AKR1C1 (Q04828 whole entry, looked up): as the sequence (P52895 whole entry) above, with V38T, H47R, V54L, S87C, M151V, H170R, L172Q counted along it

Consider `CC[C@@H](C(=O)O)c1ccc2cc(OC)ccc2c1` [LM5750B 8a, 2(R)-(6-methoxynaphthalen-2-yl)butanoic acid], for which the IC50 against AKR1C1 is 50000 nM; against COX-1 (arachidonic acid as substrate) it was over 100000 nM; on AKR1C2 [3], 46400 nM and 48100 nM; on AKR1C3 [6] (setting [8]), 110 ± 10 nM. Moreover, the “inhibition of AKR1C2” value against AKR1C2 [1] is “did not display any significant inhibition”. The inhibition at 100 µM against COX-1 (setting [7]) was under 20%. Besides, in the test with LNCaP-AKR1C3 cells [2], the “Δ4-AD mediated increase in PSA expression” value was “inhibited”. The inhibition constant (Ki) was 750 nM on AKR1C3 [4] and 31 nM on AKR1C3 [6] (E.NADP+.I complex, read-out: Ki, competitive inhibition of AKR1C3 catalyzed oxidation of S-tetralol). For the same molecule, the “production of 3H-testosterone glucuronide” value in the test with LNCaP-AKR1C3 cells [5] is “significantly inhibited”. For the same molecule, the “preference for the E.NADP+ complex” value at AKR1C3 [6] (over E.NADPH complex) was determined as 20 fold. In addition, at AKR1C3 [6] (oxidation of S-tetralol), the “pattern of AKR1C3 inhibition” value is given as “competitively inhibited”.

As for `CCOc1ccc2cc(C(C)C(=O)O)ccc2c1` (racemic) [LM5753(±) 3, 2-(6-Ethoxynaphthalen-2-yl)propanoic Acid], the IC50 worked out at 2400 ± 240 nM on AKR1C2 [3] and 100 ± 7.6 nM at AKR1C3 [6] (setting [8]).

Take `CCC(C(=O)NS(C)(=O)=O)c1ccc2cc(OC)ccc2c1` (racemic) [LM5885 (±) 7, 2-(6-Methoxynaphthalen-2-yl)-N-(methylsulfonyl)butanamide]: the half-inhibitory concentration (IC50) at AKR1C2 [3] was 34000 nM.

As for `CSc1ccc2cc(C(C)C(=O)O)ccc2c1` (racemic) [LM5752(±) 4, 2-(6-(Methylthio)naphthalen-2-yl)propanoic Acid], the IC50 at AKR1C2 [3] was 1500 ± 140 nM; at AKR1C3 [6] (S-tetralol oxidation) it was 60 nM. The “increase in the inhibitory potency for AKR1C3” value on AKR1C3 [6] (over naproxen) is 3 fold.

For `CCC(C(=O)O)c1ccc2cc(OC)ccc2c1` (racemic) [LM5750(±) 8, 2-(6-Methoxynaphthalen-2-yl)butanoic Acid], on COX-2 (maximum concentration of arachidonic acid tested as substrate (10 μM)), the “inhibitory activity on COX-2” value is listed as “no inhibitory activity”. Further, the IC50 worked out at 7600 ± 950 nM on AKR1C2 [3] and 120 nM on AKR1C3 [6] (S-tetralol oxidation).

Turning to `CCc1ccc2cc(C(C)C(=O)O)ccc2c1` (racemic) [LM5751(±) 2, 2-(6-Ethylnaphthalen-2-yl)propanoic Acid], the IC50 turned out to be 1900 ± 110 nM at AKR1C2 [3] and 120 ± 7.5 nM at AKR1C3 [6] (setting [8]).

With `CC(C(=O)O)c1ccc2cc([S+](C)[O-])ccc2c1` (racemic) [LM5754(±) 5, 2-(6-(Methylsulfinyl)naphthalen-2-yl)propanoic Acid], the IC50 at AKR1C2 [3] came to 6300 ± 350 nM.

`COc1ccc2cc(C(C)(C)C(=O)O)ccc2c1` [DimethylNaproxen 9, 2-(6-methoxynaphthalen-2-yl)-2-methylpropanoic acid]: the half-inhibitory concentration (IC50) at AKR1C2 [3] worked out at 1320 nM; on AKR1C3 [6] (setting [8]), 270 nM. Further, the “Ratio IC50 value (AKR1C2/AKR1C3)” value at AKR1C3 [6] (selectivity for AKR1C3 over AKR1C2, Table 1) is listed as 5.

For the molecule `CC(C(=O)O)c1ccc2cc(S(C)(=O)=O)ccc2c1` (racemic) [LM5754(±) 6, 2-(6-(Methylsulfonyl)naphthalen-2-yl)propanoic Acid], on AKR1C2 [3], the IC50 came to 3000 ± 140 nM.

As to `COc1ccc2cc(CC(=O)O)ccc2c1` [DesmethylNaproxen 10, 2-(6-methoxynaphthalen-2-yl)acetic acid], the half-inhibitory concentration (IC50) amounted to 19000 ± 3700 nM on AKR1C2 [3] and 650 ± 110 nM at AKR1C3 [6] (setting [8]).

In the case of `CSc1ccc2cc([C@@H](C)C(=O)O)ccc2c1` [(R)-4a, 2(R)-(6-(methylthio)naphthalen-2-yl)propanoic acid], the IC50 at AKR1C2 [3] amounted to 4350 ± 610 nM; at AKR1C3 [6] (setting [8]) it was 50 ± 1.5 nM.

On to `COc1ccc2cc([C@@H](C)C(=O)O)ccc2c1` [R-Naproxen (1a), reference compound], for which the figures for the IC50 against COX-2 (Table 2) and at AKR1C2 [3] were over 25000 nM and 2750 nM, respectively. For the same molecule, the “inhibition of COX-1 activity” value on COX-1 (setting [7]) is on record as “less than 20%”.

For `COc1ccc2cc([C@H](C)C(=O)O)ccc2c1` [S-Naproxen (1), (S)-2-(6-methoxynaphthalen-2-yl)propanoic acid, reference compound], the IC50 at AKR1C2 [3] was found to be 1260 ± 150 nM.
